Results: US11903387B2 (priority 2016, dated 2024)
Read-outs that look alike come from different tables or passages of the source.

Columns and labels:
Phytophthora infestans = experiment: whole plant or invertebrate; type: in vivo; details: for Test 1 preventive value, Measured: applied alone
[1] = tested on: Pseudoperonospora cubensis; experiment: Test 2: control effect against cucumber downy mildew; type: in vivo
[2] = component (b) alone 0.4 ppm, average of three repeats
[3] = component (b) alone 2 ppm, average of three repeats
[4] = component (b) alone 10 ppm, average of three repeats

## COC(=O)CC(NC(=O)[C@@H](NC(=O)OC(C)C)C(C)C)c1ccc(Cl)cc1 (some centres unmarked) [Valifenalate]
Phytophthora infestans; [2]
  Test 1 Measured preventive value: 20.0
Phytophthora infestans; [3]
  Test 1 Measured preventive value: 51.7
Phytophthora infestans; [4]
  Test 1 Measured preventive value: 96.2
Phytophthora infestans; component (b) alone, 0.4 ppm
  Test 1 Measured: 10.0
  Test 1 Measured preventive value: 20.0
Phytophthora infestans; component (b) alone, 2 ppm
  Test 1 Measured: 45.2
  Test 1 Measured preventive value: 51.7
Phytophthora infestans; component (b) alone, 10 ppm
  Test 1 Measured: 97.0
  Test 1 Measured preventive value: 96.2
[1]; [2]
  Test 2 Measured preventive value: 0
[1]; [3]
  Test 2 Measured preventive value: 57.5
[1]; [4]
  Test 2 Measured preventive value: 93.5
[1]; component (b) alone, 0.4 ppm
  Test 2 Measured: 4
  Test 2 Measured preventive value: 0
[1]; component (b) alone, 2 ppm
  Test 2 Measured: 51.8
  Test 2 Measured preventive value: 57.5
[1]; component (b) alone, 10 ppm
  Test 2 Measured: 93
  Test 2 Measured preventive value: 93.5

## COC(=O)NC(=S)Nc1ccccc1NC(=S)NC(=O)OC [Thiophanate-methyl]
Phytophthora infestans; Phytophthora infestans, in Solanum lycopersicum, read-out: Test 1 Measured, component (b) alone 20 ppm
  pest or weed control at 20 ppm: 0%
Phytophthora infestans; Phytophthora infestans, in Solanum lycopersicum, read-out: Test 1 Measured, component (b) alone 500 ppm
  pest or weed control at 500 ppm: 60%
[1]; Pseudoperonospora cubensis, component (b) alone 20 ppm, read-out: Test 2 Measured
  pest or weed control at 20 ppm: 0%
[1]; Pseudoperonospora cubensis, component (b) alone 100 ppm, read-out: Test 2 Measured
  pest or weed control at 100 ppm: 0%
[1]; Pseudoperonospora cubensis, component (b) alone 500 ppm, read-out: Test 2 Measured
  pest or weed control at 500 ppm: 2.5%

## COc1cc(C)c(C(=O)c2c(OC)ncc(Cl)c2C)c(OC)c1OC [Pyriofenone]
Phytophthora infestans; 10 ppm
  Test 1 preventive value, Measured: 0.0
Phytophthora infestans; 50 ppm
  Test 1 preventive value, Measured: 0.0
Phytophthora infestans; 250 ppm
  Test 1 preventive value, Measured: 0.0
[1]; component (b) alone 250 ppm
  Test 2 Measured: 10
[1]; component (b) alone, 10 ppm
  Test 2 Measured: 0
[1]; component (b) alone, 50 ppm
  Test 2 Measured: 5

## N#Cc1c(Cl)c(Cl)c(Cl)c(C#N)c1Cl [Chlorothalonil]
Phytophthora infestans; Phytophthora infestans, in Solanum lycopersicum, read-out: Test 1 Measured preventive value, component (b) alone, 0.4 ppm
  pest or weed control at 0.4 ppm: 0%
Phytophthora infestans; Phytophthora infestans, in Solanum lycopersicum, read-out: Test 1 Measured preventive value, component (b) alone, 2 ppm
  pest or weed control at 2 ppm: 53.3%
Phytophthora infestans; Phytophthora infestans, in Solanum lycopersicum, read-out: Test 1 Measured preventive value, component (b) alone, 10 ppm
  pest or weed control at 10 ppm: 100%
Phytophthora infestans; Phytophthora infestans, in Solanum lycopersicum, read-out: Test 1 Measured, component (b) alone, 0.4 ppm
  pest or weed control at 0.4 ppm: 0%
Phytophthora infestans; Phytophthora infestans, in Solanum lycopersicum, read-out: Test 1 Measured, component (b) alone, 2 ppm
  pest or weed control at 2 ppm: 62.1%
Phytophthora infestans; Phytophthora infestans, in Solanum lycopersicum, read-out: Test 1 Measured, component (b) alone, 10 ppm
  pest or weed control at 10 ppm: 100%
[1]; Pseudoperonospora cubensis, applied alone, 0.4 ppm, read-out: Test 2 preventive value, Measured
  pest or weed control at 0.4 ppm: 41.8%
[1]; Pseudoperonospora cubensis, applied alone, 2 ppm, read-out: Test 2 preventive value, Measured
  pest or weed control at 2 ppm: 100%
[1]; Pseudoperonospora cubensis, applied alone, 10 ppm, read-out: Test 2 preventive value, Measured
  pest or weed control at 10 ppm: 100%
[1]; Pseudoperonospora cubensis, component (b) alone, 0.4 ppm, read-out: Test 2 Measured
  pest or weed control at 0.4 ppm: 0%
[1]; Pseudoperonospora cubensis, component (b) alone, 2 ppm, read-out: Test 2 Measured
  pest or weed control at 2 ppm: 80.5%
[1]; Pseudoperonospora cubensis, component (b) alone, 10 ppm, read-out: Test 2 Measured
  pest or weed control at 10 ppm: 100%

## CC(=O)Oc1c(C)c(C)nc2c(F)cc(C(C)(C)C)cc12 [Tebufloquin]
Phytophthora infestans; component (b) alone 4 ppm
  Test 1 Measured: 0.0
Phytophthora infestans; component (b) alone, 20 ppm
  Test 1 Measured: 0.0
Phytophthora infestans; component (b) alone, 100 ppm
  Test 1 Measured: 46.7
[1]; component (b) alone 4 ppm
  Test 2 Measured: 0
[1]; component (b) alone, 20 ppm
  Test 2 Measured: 0
[1]; component (b) alone, 100 ppm
  Test 2 Measured: 0

## CCNc1nc(CC)c(C(=O)NC(C#N)c2cccs2)s1 (centres unmarked) [Ethaboxam]
Phytophthora infestans; component (b) alone, 2 ppm
  Test 1 Measured preventive value: 95
Phytophthora infestans; component (b) alone, 10 ppm
  Test 1 Measured preventive value: 98.3
Phytophthora infestans; component (b) alone, 50 ppm
  Test 1 Measured preventive value: 97.8
[1]; component (b) alone, 2 ppm
  Test 2 Measured preventive value: 88.3
[1]; component (b) alone, 10 ppm
  Test 2 Measured preventive value: 99.5
[1]; component (b) alone, 50 ppm
  Test 2 Measured preventive value: 100
